Assay results reported in US8350010B2, “Anti-alpha5/beta1 antibody” (Genentech, Inc., priority 2006, dated 2013).

Test system: HCT116 tumor cells (colon tumor cells)
Assay: HCT116 colon tumor model, anti-alpha5beta1 + chemotherapy
Format: in vivo, HRLN female nu/nu mice
Conditions: chemotherapeutic agent by itself
Protocol: HRLN female nu/nu mice were injected with 5×10^6 HCT116 tumor cells (colon tumor cells) subcutaneously in their flanks. Tumors were allowed to grow until they reach an average size of 80-120 cubic mm before treatment with therapies. Tumor bearing mice were then divided into 4 groups:
Tumor volume measurement was carried out twice a week using a standard caliper measurement method. The hamster anti-mouse integrin alpha5 mab, known as 10E7, was generated at Genentech. Body weight was measured 5 times over 2 days then twice per week (biwk) to the end of the study. The endpoint of the experiment was a tumor volume of 1.5 gms or 60 days, whichever came first. Some responders were followed longer. When the endpoint was reached, the animals were euthanized. The dosing volume was 10 mL/kg (0.200 ml/20 g mouse), which volume was adjusted for body weight. 10E7 was administered 30 minutes before irinotecan administration. For animals showing complete regression (CR), tissues at the site of tumor implantation were collected at endpoint and preserved in formulin followed by 70% EtOH for later study. All samples to be frozen were placed in a cryomold, wrapped in foil & snap frozen on liquid nitrogen.

CCc1c2c(nc3ccc(OC(=O)N4CCC(N5CCCCC5)CC4)cc13)-c1cc3c(c(=O)n1C2)COC(=O)[C@]3(O)CC [irinotecan]
vascular damage: did not cause significant vascular damage
